Test systems include A498 renal; HCT-15 colon; HOP-92 NSCLC; K-562 leukemia; OVCAR-3 ovarian; OVCAR-4 ovarian; RPMI-8226 leukemia; SF-268 CNS; SN12C renal; T-47D breast.
Holding throughout (assay): DTP human tumour cell line panel, 48 h

Here are results for seven compounds from PubChem BioAssay (NCI).

The structures appear in SMILES notation.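 1) Cells in 96-well plates. 2) Compound, 48 h, 5 concentrations. 3) Linear interpolation between surrounding doses. 4) Unreached endpoint = highest concentration. GI50: concentration for 50% inhibition of growth. TGI is the concentration that stops growth completely.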 A value given as a limit tells only on which side of the number the result lay.

As to `O=c1oc2ccc(Cl)cc2c(=O)n1-c1ccc(I)cc1F`, the GI50 was 0.055 µM with A498 renal; 0.231 µM in the experiment on HCT-15 colon; 0.0571 µM in the experiment with HOP-92 NSCLC; 0.176 µM with K-562 leukemia; 0.177 µM in the experiment with OVCAR-3 ovarian; 0.225 µM in the experiment with OVCAR-4 ovarian. In addition, the GI50 in the experiment with RPMI-8226 leukemia is 0.0907 µM; in the experiment on SF-268 CNS it was 0.26 µM; in the experiment with SN12C renal, 0.204 µM; in the experiment with T-47D breast, 0.152 µM. Further, the total growth inhibition concentration (TGI) in the experiment with A498 renal was 0.182 µM; in the experiment on HCT-15 colon, 6.74 µM; in the experiment on HOP-92 NSCLC it was 0.202 µM; in the experiment with K-562 leukemia it was greater than 100 µM; in the experiment with OVCAR-3 ovarian, 13.3 µM; in the experiment with OVCAR-4 ovarian it was greater than 87.2 µM. The TGI in the experiment with RPMI-8226 leukemia came to 0.436 µM; in the experiment with SF-268 CNS it was 4.11 µM; with SN12C renal, 3.07 µM; in the experiment on T-47D breast it was 1.11 µM.

As for `O=C(NN1C(=O)CSC1c1ccc(Cl)cc1)c1[nH]c2ccc(F)cc2c1-c1ccccc1` (stereo not given), the GI50 was 2.98 µM in the experiment with A498 renal; 3.9 µM in the experiment with HCT-15 colon; 2.42 µM with HOP-92 NSCLC; 2.43 µM in the experiment on K-562 leukemia; 1.85 µM in the experiment with OVCAR-3 ovarian; 6.3 µM in the experiment on OVCAR-4 ovarian. The GI50 in the experiment on RPMI-8226 leukemia was 2.13 µM; in the experiment with SF-268 CNS, 2.51 µM; in the experiment on SN12C renal it was 2.87 µM; with T-47D breast it was 3.73 µM. Further, the TGI worked out at 9.79 µM in the experiment with A498 renal; 14.3 µM in the experiment on HCT-15 colon; 6.6 µM in the experiment on HOP-92 NSCLC; 9.51 µM in the experiment with K-562 leukemia; 3.53 µM in the experiment with OVCAR-3 ovarian; 24 µM with OVCAR-4 ovarian. Also, the total growth inhibition concentration (TGI) in the experiment with RPMI-8226 leukemia was found to be 6.24 µM; in the experiment on SF-268 CNS, 7.19 µM; in the experiment on SN12C renal, 7.84 µM; with T-47D breast, 14.2 µM.

On to `COc1cc(/C=C(/c2ccccc2)[N+](=O)[O-])c(OC)c2c1OCO2`, for which the GI50 with A498 renal was 1.54 µM; in the experiment with HCT-15 colon it was 0.389 µM; with HOP-92 NSCLC, 1.48 µM; in the experiment with K-562 leukemia, 0.373 µM; with OVCAR-3 ovarian, 1.32 µM; in the experiment with OVCAR-4 ovarian it was 1.74 µM. For the same compound, the GI50 with RPMI-8226 leukemia was 0.459 µM; with SF-268 CNS, 1.84 µM; with SN12C renal it was 1.56 µM; with T-47D breast, 1.21 µM. For the same compound, the total growth inhibition concentration (TGI) in the experiment with A498 renal was 3 µM; with HCT-15 colon it was 1.6 µM; in the experiment on HOP-92 NSCLC it was 3.2 µM; in the experiment on K-562 leukemia, 13.7 µM; in the experiment on OVCAR-3 ovarian, 2.63 µM; with OVCAR-4 ovarian it was 3.15 µM. Besides, the concentration for total growth inhibition (TGI) in the experiment on RPMI-8226 leukemia was found to be 4.1 µM; in the experiment with SF-268 CNS it was 3.92 µM; with SN12C renal, 3.79 µM; in the experiment with T-47D breast, 5.57 µM.

With `Cc1cc(N2CCCC2)nc(N(CCCNc2ccnc3cc(Cl)ccc23)Cc2ccc3c(c2)OCO3)n1`, the GI50 in the experiment on A498 renal was 2.44 µM; in the experiment on HCT-15 colon, 0.805 µM; in the experiment on HOP-92 NSCLC it was 0.0237 µM; in the experiment on K-562 leukemia, 0.218 µM; with OVCAR-3 ovarian, 1.06 µM; in the experiment with OVCAR-4 ovarian, 1.86 µM. In addition, the GI50 in the experiment on RPMI-8226 leukemia was 0.322 µM; in the experiment with SF-268 CNS, 2.89 µM; with SN12C renal, 1.76 µM; in the experiment on T-47D breast it was 1.42 µM. Moreover, the TGI came out at 7.5 µM in the experiment with A498 renal; 5.82 µM with HCT-15 colon; 2.96 µM in the experiment with HOP-92 NSCLC; 1.86 µM in the experiment on K-562 leukemia; 2.87 µM with OVCAR-3 ovarian; 8.22 µM in the experiment with OVCAR-4 ovarian. Also, the TGI with RPMI-8226 leukemia turned out to be 1.72 µM; in the experiment with SF-268 CNS it was 16.6 µM; in the experiment with SN12C renal it was 11.3 µM; in the experiment on T-47D breast, 4.66 µM.

Regarding `Clc1ccc2nc(Oc3ccccc3)cnc2c1`, the GI50 was 8.84 µM with A498 renal; greater than 100 µM in the experiment on HCT-15 colon; 14 µM in the experiment on HOP-92 NSCLC; greater than 100 µM in the experiment with K-562 leukemia; greater than 100 µM in the experiment on OVCAR-3 ovarian; greater than 100 µM in the experiment on OVCAR-4 ovarian. Further, the GI50 with RPMI-8226 leukemia, with SF-268 CNS, with SN12C renal and with T-47D breast was greater than 100 µM throughout. For the same compound, the concentration for total growth inhibition (TGI) in the experiment on A498 renal, in the experiment on HCT-15 colon, with HOP-92 NSCLC, in the experiment on K-562 leukemia, with OVCAR-3 ovarian and in the experiment with OVCAR-4 ovarian was greater than 100 µM each time. For the same compound, the total growth inhibition concentration (TGI) in the experiment on RPMI-8226 leukemia, with SF-268 CNS, with SN12C renal and with T-47D breast was greater than 100 µM in each case.

As for `Cn1cc(-c2ccc3c(c2)CCN3C(=O)Cc2cccc(C(F)(F)F)c2)c2c(N)ncnc21`, the GI50 in the experiment with A498 renal is 0.453 µM; in the experiment on HCT-15 colon, 1.77 µM; in the experiment with HOP-92 NSCLC, 1.7 µM; in the experiment on K-562 leukemia it was 2.22 µM; in the experiment on OVCAR-3 ovarian it was 7.1 µM; in the experiment on OVCAR-4 ovarian, 2.41 µM. The GI50 was 3.84 µM with RPMI-8226 leukemia, 9 µM with SF-268 CNS, 2.48 µM in the experiment on SN12C renal and 3.32 µM with T-47D breast. In addition, the TGI was 6.56 µM in the experiment on A498 renal; 16.1 µM in the experiment with HCT-15 colon; 9.2 µM in the experiment with HOP-92 NSCLC; 20.6 µM in the experiment on K-562 leukemia; 21.9 µM in the experiment with OVCAR-3 ovarian; greater than 100 µM in the experiment with OVCAR-4 ovarian. Besides, the total growth inhibition concentration (TGI) with RPMI-8226 leukemia is 27.7 µM; in the experiment on SF-268 CNS, 26.5 µM; in the experiment with SN12C renal, 19.6 µM; with T-47D breast it was 20.2 µM.

For the compound `COc1cc2cc(Oc3ccc(NC(=O)c4ccc(Cl)c(C(F)(F)F)c4)cc3)c(C)nc2cc1OC`, the GI50 in the experiment with A498 renal was 2.42 µM; in the experiment on HCT-15 colon it was 12.3 µM; in the experiment on HOP-92 NSCLC, 13.6 µM; with K-562 leukemia, 9.14 µM; in the experiment on OVCAR-3 ovarian, 7.94 µM; in the experiment on OVCAR-4 ovarian, 5.58 µM. Besides, the GI50 in the experiment on RPMI-8226 leukemia was 5.43 µM; in the experiment on SF-268 CNS it was 37.2 µM; in the experiment on SN12C renal, 13.2 µM; in the experiment on T-47D breast, 5.69 µM. In addition, the TGI in the experiment with A498 renal is 86.3 µM; with HCT-15 colon, greater than 100 µM; in the experiment with HOP-92 NSCLC it was 71.3 µM; with K-562 leukemia it was greater than 100 µM; with OVCAR-3 ovarian, 54 µM; in the experiment on OVCAR-4 ovarian it was greater than 100 µM. The concentration for total growth inhibition (TGI) in the experiment with RPMI-8226 leukemia is 32.7 µM; in the experiment with SF-268 CNS, greater than 100 µM; in the experiment with SN12C renal, greater than 100 µM; in the experiment on T-47D breast, 99.6 µM.

What is called GI50 is the concentration at which growth is held to half of that of the control. For orientation: TGI means the concentration at which net growth stops. Read a low TGI as more potent growth arrest.
